Ten molecules from patent US20240269139A1, “COMPOUNDS FOR TARGETED PROTEIN DEGRADATION OF KINASES” (DANA-FARBER CANCER INSTITUTE, INC., priority 2020, published 2024) can be followed below.

In assay [1] the target is T1, protein kinases (human kinome) (Homo sapiens, UniProt O75385).
T1 sequence (O75385 1-1050): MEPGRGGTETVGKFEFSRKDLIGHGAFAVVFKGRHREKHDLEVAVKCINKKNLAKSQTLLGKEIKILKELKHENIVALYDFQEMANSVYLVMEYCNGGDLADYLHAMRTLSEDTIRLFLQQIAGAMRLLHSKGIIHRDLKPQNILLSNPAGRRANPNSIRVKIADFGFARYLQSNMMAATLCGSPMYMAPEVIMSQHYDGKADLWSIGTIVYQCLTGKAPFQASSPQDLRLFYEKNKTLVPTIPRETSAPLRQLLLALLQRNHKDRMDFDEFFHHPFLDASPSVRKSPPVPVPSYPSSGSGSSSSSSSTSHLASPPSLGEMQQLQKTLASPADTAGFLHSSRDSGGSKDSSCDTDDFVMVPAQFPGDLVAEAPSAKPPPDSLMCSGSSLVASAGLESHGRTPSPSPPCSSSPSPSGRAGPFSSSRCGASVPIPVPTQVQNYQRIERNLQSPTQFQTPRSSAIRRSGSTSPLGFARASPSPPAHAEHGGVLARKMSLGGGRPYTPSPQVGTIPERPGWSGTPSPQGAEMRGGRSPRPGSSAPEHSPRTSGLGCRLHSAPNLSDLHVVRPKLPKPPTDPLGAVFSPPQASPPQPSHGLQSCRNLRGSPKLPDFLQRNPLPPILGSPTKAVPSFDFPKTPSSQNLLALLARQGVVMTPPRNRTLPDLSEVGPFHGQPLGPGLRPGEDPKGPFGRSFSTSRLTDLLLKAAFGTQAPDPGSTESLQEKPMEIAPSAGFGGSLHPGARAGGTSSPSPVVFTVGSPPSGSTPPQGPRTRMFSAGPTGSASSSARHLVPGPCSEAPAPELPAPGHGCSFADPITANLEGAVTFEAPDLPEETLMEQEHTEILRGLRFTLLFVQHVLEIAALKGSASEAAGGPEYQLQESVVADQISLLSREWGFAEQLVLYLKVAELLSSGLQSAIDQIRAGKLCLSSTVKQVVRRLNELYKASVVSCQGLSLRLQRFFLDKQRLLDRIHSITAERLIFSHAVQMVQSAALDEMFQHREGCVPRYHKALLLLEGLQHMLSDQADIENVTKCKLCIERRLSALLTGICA
It counts as cell-based. The settings on record: for logFC: ULK1 (O75385) protein abundance, degrader vs DMSO, down; for logFC ULK1: ULK1 O75385.

Assay [2] concerns the target protein kinases (human kinome) (Homo sapiens, UniProt P53671). The assay is classed as cell-based. The settings on record: for logFC LIMK2: LIMK2 (P53671), down; for logFC of LIMK2: LIMK2 P53671.
The target of assay [3] is protein kinases (human kinome) (Homo sapiens, UniProt Q00534). The assay is classed as cell-based. The settings on record: for logFC CDK6: CDK6 (Q00534), direction down; for logFC of CDK6 (Q00534): down.
Sequence of protein kinases (human kinome) (Homo sapiens, UniProt Q00534) (Q00534 whole entry): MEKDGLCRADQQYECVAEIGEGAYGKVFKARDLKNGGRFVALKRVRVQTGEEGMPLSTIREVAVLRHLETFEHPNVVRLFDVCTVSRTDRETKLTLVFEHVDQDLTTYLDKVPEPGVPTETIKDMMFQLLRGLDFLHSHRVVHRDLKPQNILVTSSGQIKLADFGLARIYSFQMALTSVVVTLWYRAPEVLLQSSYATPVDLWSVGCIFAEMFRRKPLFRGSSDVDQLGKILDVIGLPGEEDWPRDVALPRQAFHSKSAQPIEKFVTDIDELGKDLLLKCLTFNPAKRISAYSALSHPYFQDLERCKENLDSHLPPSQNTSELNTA
Assay [4] has as its target T2, extended human kinome (kinase-like proteins) (Homo sapiens, UniProt Q53R41).
T2 sequence (Q53R41 1-847): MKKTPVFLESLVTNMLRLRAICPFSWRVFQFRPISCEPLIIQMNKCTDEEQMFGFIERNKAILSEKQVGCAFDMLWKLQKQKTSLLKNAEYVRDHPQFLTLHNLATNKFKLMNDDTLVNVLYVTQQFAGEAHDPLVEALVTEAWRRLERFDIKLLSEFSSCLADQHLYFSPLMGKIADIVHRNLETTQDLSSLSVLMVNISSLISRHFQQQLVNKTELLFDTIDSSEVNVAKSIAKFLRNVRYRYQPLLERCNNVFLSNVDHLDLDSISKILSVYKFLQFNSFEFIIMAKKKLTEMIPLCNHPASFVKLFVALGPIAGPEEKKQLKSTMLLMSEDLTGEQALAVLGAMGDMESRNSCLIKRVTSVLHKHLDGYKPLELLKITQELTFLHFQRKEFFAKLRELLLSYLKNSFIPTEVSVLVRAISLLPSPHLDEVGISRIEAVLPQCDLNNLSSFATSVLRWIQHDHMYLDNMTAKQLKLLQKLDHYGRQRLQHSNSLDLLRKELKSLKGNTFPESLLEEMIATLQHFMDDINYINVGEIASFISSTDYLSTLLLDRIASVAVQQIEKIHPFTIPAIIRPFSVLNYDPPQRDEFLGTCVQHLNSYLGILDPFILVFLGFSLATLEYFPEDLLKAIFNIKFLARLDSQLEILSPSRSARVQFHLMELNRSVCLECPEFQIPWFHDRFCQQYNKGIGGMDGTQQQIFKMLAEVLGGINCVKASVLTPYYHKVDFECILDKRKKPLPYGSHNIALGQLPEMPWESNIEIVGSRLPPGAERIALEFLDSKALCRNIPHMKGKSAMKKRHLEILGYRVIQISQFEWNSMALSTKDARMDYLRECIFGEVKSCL
In words: Whole cell quantitative proteomics: extended kinome hits.
Procedure: Whole cell multiplexed quantitative proteomics was employed to measure changes in abundance of the proteome in response to treatment with each of the kinase degrader molecules relative to DMSO (Table 1, Appendix I).
Cells were treated with DMSO (biological triplicate) or degrader at indicated dose and time and cells were harvested by centrifugation. […] Precipitated protein was resuspended in 4 M Urea, 50 mM HEPES pH 7.4, followed by dilution to 1 M urea with the addition of 200 mM EPPS, pH 8. Proteins were first digested with LysC (1:50: enzyme:protein) for 12 hours at room temperature. The LysC digestion was diluted to 0.5 M Urea with 200 mM EPPS pH 8 followed by digestion with trypsin (1:50; enzyme:protein) for 6 hours at 37° C. Tandem mass tag (TMT) reagents (Thermo Fisher Scientific) were dissolved in anhydrous acetonitrile (ACN) according to manufacturer's instructions. […] The 10, 11, or 16-plex labeling reactions were performed for 1.5 hours at room temperature and the reaction quenched by the addition of hydroxylamine to a final concentration of 0.3% for 15 minutes at room temperature. The sample channels were combined at a 1:1 ratio, desalted using C18 solid phase extraction cartridges (Waters®) and analyzed by LC-MS for channel ratio comparison. Samples were then combined using the adjusted volumes determined in the channel ratio analysis and dried down in a speed vacuum. The combined sample was then resuspended in 1% formic acid, and acidified (pH 2-3) before being subjected to desalting with C18 SPE (Sep-Pak®, Waters®). Samples were then offline fractionated into 96 fractions by high pH reverse-phase HPLC (Agilent® LC1260) through an aeris peptide xb-c18 column (Phenomenex®) with mobile phase A containing 5% acetonitrile and 10 mM NH4HCO3 in LC-MS grade H2O, and mobile phase B containing 90% acetonitrile and 10 mM NH4HCO3 in LC-MS grade H2O (both pH 8.0). The 96 resulting fractions were then pooled in a non-continuous manner into 24 fractions and desalted using C18 solid phase extraction plates (SOLA®, Thermo Fisher Scientific) followed by subsequent mass spectrometry analysis.
Data were collected using an Orbitrap Fusion™ Lumos™ mass spectrometer (Thermo Fisher Scientific, San Jose, CA, USA) coupled with a Proxeon EASY-nLC™ 1200 LC pump (Thermo Fisher Scientific) or an Orbitrap Eclipse™ Tribrid™ mass spectrometer (Thermo Fisher Scientific, San Jose, CA, USA) coupled with an UltiMate™ 3000 RSLCnano System. Peptides were separated on an EasySpray™ ES803a/ES803a.rev2 75 μm inner diameter microcapillary column (ThermoFisher Scientific).
Data dependent MS2 spectra were acquired in the ion trap with a normalized collision energy (NCE) set at 35%, AGC target set to 1.8×10^4 and a maximum injection time of 120 ms. MS3 scans were acquired in the Orbitrap with HCD collision energy set to 55%. AGC target set to 2×10^5, maximum injection time of 150 ms, resolution at 50,000 and with a maximum synchronous precursor selection (SPS) precursors set to 10.
Proteome Discoverer™ 2.1, 2.2 or 2.4 (Thermo Fisher Scientific) was used for .RAW file processing and controlling peptide and protein level false discovery rates, assembling proteins from peptides, and protein quantification from peptides.

“And” between values parts separate entries of the source, which are not always exact repeats. Equal values may be shown once. Read-outs that look alike come from different tables or passages of the source.

Sequence of protein kinases (human kinome) (Homo sapiens, UniProt P53671) (P53671 whole entry): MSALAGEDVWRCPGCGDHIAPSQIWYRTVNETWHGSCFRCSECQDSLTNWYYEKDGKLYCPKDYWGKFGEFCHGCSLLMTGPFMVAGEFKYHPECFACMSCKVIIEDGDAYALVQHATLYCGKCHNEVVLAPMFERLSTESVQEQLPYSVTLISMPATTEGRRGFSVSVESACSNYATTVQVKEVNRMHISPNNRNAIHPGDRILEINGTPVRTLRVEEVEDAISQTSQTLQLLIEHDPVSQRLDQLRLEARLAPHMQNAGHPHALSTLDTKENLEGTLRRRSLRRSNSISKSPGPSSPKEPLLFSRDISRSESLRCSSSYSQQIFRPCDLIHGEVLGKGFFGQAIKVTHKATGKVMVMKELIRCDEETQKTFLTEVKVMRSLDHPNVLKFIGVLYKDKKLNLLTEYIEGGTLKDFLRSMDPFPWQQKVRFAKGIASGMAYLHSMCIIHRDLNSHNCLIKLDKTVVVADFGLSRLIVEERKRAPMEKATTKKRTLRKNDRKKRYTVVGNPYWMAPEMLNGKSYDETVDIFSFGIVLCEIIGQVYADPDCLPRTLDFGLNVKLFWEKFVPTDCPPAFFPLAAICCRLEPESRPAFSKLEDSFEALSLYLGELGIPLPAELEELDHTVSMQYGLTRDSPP

As for `O=C(COc1cccc2c1C(=O)N(C1CCC(=O)NC1=O)C2=O)NCCCCCCCN1CCc2cc(Nc3ncc(C4CC4)c(NCCCNC(=O)C4CCC4)n3)ccc2C1` (centres unmarked) [BSJ.04.178], in assay [1], the logFC was −1.683. Moreover, in assay [1] (experiment wp134), the “logFC ULK1” value is reported as −1.683.

With `Cc1ncsc1-c1ccc([C@H](C)NC(=O)[C@@H]2C[C@@H](O)CN2C(=O)[C@@H](NC(=O)CCCCCN2CCc3cc(Nc4ncc(C5CC5)c(NCCCNC(=O)C5CCC5)n4)ccc3C2)C(C)(C)C)cc1` [BSJ.05.026], in assay [1], the logFC is on record as −0.4424. In assay [1] (experiment wp195), the “logFC ULK1” value is −0.4424.

For the molecule `CS(=O)(=O)Nc1cccc(-c2csc3cnc(Nc4ccc(N5CCN(CCCCCOc6cccc7c6C(=O)N(C6CCC(=O)NC6=O)C7=O)CC5)cc4)nc23)c1` (centres unmarked) [DB0614, N-(3-(2-((4-(4-(5-((2-(2,6-Dioxopiperidin-3-yl)-1,3-dioxoisoindolin-4-yl)oxy)pentyl)piperazin-1-yl)phenyl)amino)thieno[3,2-d]pyrimidin-7-yl)phenyl)methanesulfonamide], the “logFC LIMK2” value in assay [2] (experiment wp045) was −0.437. Also, in assay [2] (experiment wp045), the “logFC of LIMK2” value was −0.437. The “logFC CDK6” value in assay [3] (experiment wp045) is on record as −2.265; in assay [3] (experiment wp117), −2.079. The “logFC of CDK6 (Q00534)” value in assay [3] (Experiment wp045) is −2.265; in assay [3] (Experiment wp117) it was −2.079. Also, the logFC in assay [1] was −0.869 and −1.105. Besides, the “logFC ULK1” value is on record as −0.869 in assay [1] (experiment wp045) and −1.105 in assay [1] (experiment wp117).

As to `Cc1ncsc1-c1ccc([C@H](C)NC(=O)[C@@H]2C[C@@H](O)CN2C(=O)[C@@H](NC(=O)CCOCCOCCN2CCN(c3ccc(Nc4ncc(Cl)c(Nc5ccccc5S(=O)(=O)C(C)C)n4)cc3)CC2)C(C)(C)C)cc1` [FMF.06.098.1], the “logFC LIMK2” value is −0.8226 in assay [2] (experiment wp108), −1.629 in assay [2] (experiment wp114) and −1.077 in assay [2] (experiment wp131). Further, the “logFC of LIMK2” value is reported as −0.8226 in assay [2] (experiment wp108), −1.629 in assay [2] (experiment wp114) and −1.077 in assay [2] (experiment wp131). Moreover, the “logFC CDK6” value is recorded as −0.3588 in assay [3] (experiment wp108) and −0.5377 in assay [3] (experiment wp131). Further, the “logFC of CDK6 (Q00534)” value is reported as −0.3588 in assay [3] (Experiment wp108) and −0.5377 in assay [3] (Experiment wp131). Moreover, in assay [1], the logFC is −0.688 and −0.9629. The figures for the “logFC ULK1” value in assay [1] (experiment wp108) and in assay [1] (experiment wp131) were −0.688 and −0.9629, respectively.

As to `CS(=O)(=O)Nc1cccc(-c2csc3cnc(Nc4ccc(N5CCN(CCOCCOCCOc6cccc7c6C(=O)N(C6CCC(=O)NC6=O)C7=O)CC5)cc4)nc23)c1` (centres unmarked) [RSS0628], in assay [2] (experiment wp045), the “logFC LIMK2” value is −0.7182 and the “logFC of LIMK2” value is recorded as −0.7182. The “logFC CDK6” value in assay [3] (experiment wp045) is reported as −1.743. In addition, the “logFC of CDK6 (Q00534)” value in assay [3] (Experiment wp045) is on record as −1.743. Also, the logFC in assay [1] was −0.5583. Besides, in assay [1] (experiment wp045), the “logFC ULK1” value is reported as −0.5583.

For `Cc1ncsc1-c1ccc([C@H](C)NC(=O)[C@@H]2C[C@@H](O)CN2C(=O)[C@@H](NC(=O)CCCCCN2CCN(c3ccc(Nc4ncc5scc(-c6cccc(NS(C)(=O)=O)c6)c5n4)cc3)CC2)C(C)(C)C)cc1` [RSS0680, (2S,4R)-1-((S)-3,3-Dimethyl-2-(6-(4-(4-((7-(3-(methylsulfonamido)phenyl)thieno[3,2-d]pyrimidin-2-yl)amino)phenyl)piperazin-1-yl)hexanamido)butanoyl)-4-hydroxy-N—((S)-1-(4-(4-methylthiazol-5yl)phenyl)ethyl)pyrrolidine-2-carboxamide], the “logFC LIMK2” value was −0.8809 in assay [2] (experiment wp080) and −1.109 in assay [2] (experiment wp117). In addition, the “logFC of LIMK2” value in assay [2] (experiment wp080) was −0.8809; in assay [2] (experiment wp117), −1.109. For the same molecule, the “logFC CDK6” value was −2.17 in assay [3] (experiment wp080) and −2.169 in assay [3] (experiment wp117). The figures for the “logFC of CDK6 (Q00534)” value in assay [3] (Experiment wp080) and in assay [3] (Experiment wp117) were −2.17 and −2.169, respectively. Besides, the logFC in assay [1] is −0.4057 and −0.4996. In addition, the “logFC ULK1” value in assay [1] (experiment wp080) is given as −0.4057; in assay [1] (experiment wp117) it was −0.4996.

As for `Cc1ccc(C(=O)Nc2ccc(CN3CCN(CCCOCCOCCOCCNC(=O)COc4cccc5c4C(=O)N(C4CCC(=O)NC4=O)C5=O)CC3)c(C(F)(F)F)c2)cc1C#Cc1cnc2cccnn12` (centres unmarked) [SB1.G.187], the “logFC FASTKD1” value in assay [4] (Accession Q53R41, experiment wp056) is listed as −0.4811. For the same molecule, the “logFC CDK6” value in assay [3] (experiment wp103) is reported as −0.346. In addition, the “logFC of CDK6 (Q00534)” value in assay [3] (Experiment wp103) is −0.346.

In the case of `Cn1c(=O)c(-c2c(Cl)cccc2Cl)cc2cnc(Nc3ccc(OCCNC(=O)CCCCCCNC(=O)COc4cccc5c4C(=O)N(C4CCC(=O)NC4=O)C5=O)cc3)nc21` (centres unmarked) [SB1.G.192.1], the “logFC FASTKD1 (Q53R41)” value in assay [4] (experiment wp081) is −0.4222. Further, the results for the “logFC LIMK2” value in assay [2] (experiment wp081) and in assay [2] (experiment wp131) were −0.371 and −0.5544, respectively. For the same molecule, the figures for the “logFC of LIMK2” value in assay [2] (experiment wp081) and in assay [2] (experiment wp131) were −0.371 and −0.5544, respectively.

Turning to `CC(C)S(=O)(=O)c1ccccc1Nc1nc(Nc2ccc(N3CCN(CCOCCNC(=O)CNc4ccc5c(c4)C(=O)N(C4CCC(=O)NC4=O)C5=O)CC3)cc2)ncc1Cl` (centres unmarked) [SK.3.93], in assay [2] (experiment wp016), the “logFC LIMK2” value is given as −1.01 and the “logFC of LIMK2” value is on record as −1.01. Further, the “logFC CDK6” value in assay [3] (experiment wp016) is −0.8585. In addition, the “logFC of CDK6 (Q00534)” value in assay [3] (Experiment wp016) is recorded as −0.8585.

Regarding `Nc1ncc(-c2ccc(S(=O)(=O)N(CCCNC(=O)CCOCCOCCOCCOCCOCCNc3cccc4c3C(=O)N(C3CCC(=O)NC3=O)C4=O)C3CC3)cc2)cc1-c1ccc2c(c1)CCNC2=O` (centres unmarked) [WH.10417.099], in assay [2] (experiment wp103), the “logFC LIMK2” value is −0.5747 and the “logFC of LIMK2” value is given as −0.5747. In addition, in assay [2] (experiment wp107), the “logFC LIMK2” value is listed as −0.3744 and the “logFC of LIMK2” value is on record as −0.3744.
